In experiment [1] the test system is MES 23.5 cells. Description: High-affinity [3H] dopamine uptake assay, MES 23.5 neurons alone. To be noted: 100 μM MPP+ 24 hr, MES23.5 neurons alone, no Ganoderma. The class given is cell-based, rat/murine. The text has this:
(§1) The dopaminergic cell line MES 23.5 was a gift from professor Wei-dong Le, Department of Neurology, Baylor College of Medicine, Houston. The MES 23.5 cells were derived from somatic cell fusion of rat embryonic mesencephalic cells with murine N18TG2 neuroblastoma cells (Crawford, G. D. et al., 1992, J. Neurosci., 12:3392-3398). MES 23.5 cells display many properties of developing neurons of the SN zona compacta and offer several advantages for such initial studies, including greater homogeneity than primary cultures and susceptibility to both free-radical-mediated cytotoxicity and calcium-dependent cell death. […]
(§2) Cells in each well were washed with 1 ml of Krebs-Ringer buffer (16 mM NaH2PO4, 16 mM Na2HPO4, 119 mM NaCl, 4.7 mM KCl, 1.8 mM CaCl2, 1.2 mM MgSO4, 1.3 mM EDTA, and 5.6 mM glucose; pH 7.4). […] After mixing the lysate with 3 ml of scintillation fluid overnight, radioactivity was determined with Perkin Elmer 1450LSC Luminescence Counter (Waltham, USA.). Specific uptake was determined by subtracting the nonspecific counts for the total activity.
(§3) To assess inflammation mediated neurotoxicy, dopaminergic MES23.5 neurons were exposed to 100 μM MPP^+ or 0.25 μg/ml LPS in the absence or presence of microglia co-culture for 24 hr, and neurotoxicity was assessed using [3H] […]

Experiment [2] concerns MES 23.5 and microglia co-cultures. Briefly: High-affinity [3H] dopamine uptake assay, MES 23.5 and microglia co-cultures. The class given is cell-based, rat. To be noted: no Ganoderma.
Source text: as §1, §2, §3

Experiment [3] deals with IL-1β mRNA. Description: Real-time PCR of IL-1β mRNA in primary microglial cells. The class given is cell-based, rat. Conditions: stimulus alone vs control cells. The text has this: (§4) Total RNA was extracted from primary microglial cells using RNAprep Kit according to the manufacturer's specifications. RNA was primed with random 9 mers and converted into cDNA by reverse transcription (RT) using AMV reverse transcriptase by following the manufacturer's recommended protocol (Schell, J. B. et al., 2007, J. Neuroimmunol., 189:75-87; Liu, B. et al., 2000, J. Pharmacol. Exp. Ther., 293:607-617). The resulting cDNA was then subjected to real-time PCR with SYBR Premix Ex Taq containing a final concentrations of 1×SYBR Green (Molecular Probes) and 0.2 μM of the primer set of interest in a […] reaction. The PCR mixture was run in the DNA engine Opticon 2 (MJ research; Waltham, Mass.). After an initial 10-second 95° C. denaturation step, the reaction was run through 35 cycles at 95° C. for 5 s, 60° C. for 30 s, and 80° C. for 1 s. Melting curve analysis was executed to ensure the resulting products from the reaction had equivalent and appropriate melting temperatures. The specific primers used are listed in Table 1 (Schell, J. B. et al., 2007, J. Neuroimmunol., 189:75-87). The quantification of target transcripts was based on a calibration curve. The “housekeeping” gene β-actin was targeted for an internal control gene. The test gene data were normalized by corresponding β-actin data.
On the technique in general: In qPCR the cycle at which signal appears reflects the starting amount.

The subject of experiment [4] is nitric oxide (NO). Briefly: NO assay (Griess reagent) in microglia culture medium. The class given is cell-based, rat. To be noted: stimulus alone: LPS 0.25 μg/ml or MPP+-treated cell membrane fraction 150 μg/ml. How it is done:
(§5) Microglia were isolated and purified from brains of 12-24 hours old Wistar rats supplied by Laboratory Animal Center (Le, W. D. et al., 2001, J. Neurosci., 21:8447-8455). Briefly, after brains were dissected and the meninges removed, the tissues were minced and digested with trypsin (0.25% trypsin-EDTA in 0.1M phosphate buffer) for 20 minutes at 37° C., triturated with a fire-polished Pasteur pipette and filtered through a […] nylon cell strainer. After centrifugation for 5 minutes at 800 rpm, the tissues were suspended into DMEM containing 10% fetal bovine serum (FBS), and seeded in 75 cm^2 flasks at a density of 5×10^5/ml cells per flask.
Two weeks after the seeding, the flasks were shaken at 180 rpm for 4 hours, and the floating cells were collected and centrifuged for 5 minutes at 800 rpm. The cells were resuspended and plated to 96-well plates for further experimental treatment. […]
The production of NO was quantified by measuring the released NO metabolites (nitrates and nitrites) with Griess reagent (Mayer, A. M., 1998, Medicina (B Aires), 58:377-385). […] The medium was incubated with the same volume of Griess reagent at room temperature for 10 minutes before measuring absorbance at 540 nm in a LP-400 ELISA reader (Diagnostics Pasteur, Marne-la-Coquette, France) with appropriate standards. […]

Experiment [5] relates to superoxide. Briefly: Superoxide assay (Assay Kit-WST) in microglia cultures. It is filed as cell-based, rat. To be noted: stimulus alone: LPS 0.25 μg/ml or MPP+-treated cell membrane fraction 150 μg/ml. Here is the method:
as §5
(§6) Two weeks after the seeding, the flasks were shaken at 180 rpm for 4 hours, and the floating cells were collected and centrifuged for 5 minutes at 800 rpm. The cells were resuspended and plated to 96-well plates for further experimental treatment.
(§7) To study the interaction of reactive microglia with MES 23.5 cells, microglia and MES 23.5 cells were co-cultured in 24-well culture plates. Briefly, the purified microglia were plated at a density of 1×10^4/well 1 day before addition of MES 23.5 cells at a ratio of 2:1 (MES 23.5 to microglia). […]
(§8) Samples were prepared similar to NO samples and the production of these factors were determined using rat TNF-α kit, rat IL-1β ELISA kit and superoxide Assay Kit-WST according to the manufacturer's instructions. […]

In experiment [6] the test system is IL-1β. Briefly: IL-1β ELISA in microglia culture medium. Conditions: stimulus alone: LPS 0.25 μg/ml or MPP+-treated cell membrane fraction 150 μg/ml. The class given is cell-based, rat. Here is the method: as §5, §6, §7, §8
For orientation: ELISA stands for enzyme-linked immunosorbent assay.

Experiment [7] relates to TNF-α. Description: TNF-α ELISA in microglia culture medium. It is filed as cell-based, rat. Conditions: stimulus alone: LPS 0.25 μg/ml or MPP+-treated cell membrane fraction 150 μg/ml. Here is the method: as §5, §6, §7, §8
Experiment [8] relates to TNF-α mRNA. Briefly: Real-time PCR of TNF-α mRNA in primary microglial cells. The class given is cell-based, rat. Conditions: stimulus alone vs control cells.
Source text: as §4

As for `C[n+]1ccc(-c2ccccc2)cc1` [MPP^+], the “decrease in [3H] DA uptake” value in experiment [1] is recorded as “about 66%”; in experiment [2] (100 μM MPP+ 24 hr, MES23.5 and microglia co-cultures), “about 74%”.

On to lipopolysaccharide [LPS], for which the “IL-1β mRNA expression” value in experiment [3] is “significantly increased”. Moreover, the “increase of NO level” value in experiment [4] is given as 5-11 fold. Moreover, the “increase of superoxide level” value in experiment [5] is given as 5-11 fold. For the same molecule, the “increase of IL-1β level” value in experiment [6] is listed as 6-11 fold. For the same molecule, in experiment [2] (0.25 LPS 24 hr, neuron-microglia co-cultures), the “reduction of [3H] DA uptake” value is listed as “approximately 50%”. Besides, in experiment [7], the “increase of TNF-α level” value is recorded as 6-11 fold. Also, the “TNF-α mRNA expression” value in experiment [8] is recorded as “significantly increased”.

For the origin of these results see patent publication US20100278855A1, “NEUROPROTECTIVE GANODERMA COMPOSITIONS AND METHODS OF USE” (priority 2009, published 2010).
